Experimental data published in US5603917A, “Methods for the in vivo measurement of the concentration of NMR-detectable xenobiotic compounds” (Bracco International B. V., priority 1994, dated 1997).
Values joined by “and” are separate entries in the source; they are usually repeats but may differ in a detail not shown here. Equal entries are not always repeated.

How the values were obtained:
[1] = Blood sampling with in vitro assay of ^153 Gd-labeled ProHance® and ^99m Tc(DTPA), elimination from rat blood pool (validation experiment); type: in vivo; details: rats #5 to #7; blood samples; simultaneous intravenous injection; same values obtained for ^153 Gd and ^99m Tc
Description: (§1) Runs involving simultaneous intravenous injection administrations of 0.5 mmol/kg ProHance®, ^153 Gd-labeled ProHance® and ^99m Tc(DTPA) (Techneplex™, technetium-diethylenetriamine pentaacetic acid), the latter to determine glomerular filtration rate by in vitro methods as a validation experiment, were also carried out. In these runs, rat blood samples and tail T1 data were acquired at the same time intervals from the same rat, and with multiple subjects (n=3). The blood samples were assayed in vitro to determine the amounts of ^153 Gd-labeled ProHance® and ^99m Tc(DTPA) in the blood, and the percentage changes in the blood pool concentrations of ^153 Gd-labeled ProHance® and ^99m Tc(DTPA) were plotted as a function of time to obtain the T1/2 values. The T1/2 data were also calculated from the slopes of the log(1/T1 -1/T10) versus time plots. These two sets of rat T1/2 data are shown in Table 1, and are also compared in FIG. 2.

[2] = In vivo proton T1 measurement at rat tail, elimination of ProHance® (kidney status); details: intravenous 0.5 mmol/kg ProHance®, 20 MHz, 0.5 Tesla, 40° C.
Description: The measurement site was the tail of the subject rat, which was hung into the sample tube of a Brucker/IBM PC 20 Spin Analyzer (commerically available).
Rat proton T1 data were recorded both before and after intravenous injection of 0.5 mmol/kg ProHance®. The T1 measurements were made by the inversion-recovery method (Fukushima et al., Experimental Pulse NMR, a Nuts and Bolts Approach (Addison-Wesley 1981)) at 20 MHz and 0.5 Tesla at 40° C. with the IBM PC 20 relaxometer by sampling the section of the rat tail about 10 mm from the tip. The proton T1 change upon the injection of ProHance® was followed for 2 hours at 5 minute intervals after injection. The logarithms of the differences in the T1 relaxation rate (reciprocal of T1 relaxation time) before and after injection, log(1/T1 -1/T10), were plotted as a function of time. The elimination halftimes (T1/2) were calculated from the slopes of the log plots. The proton T1 data of a nephrectomized rat were also collected and used for comparison with the behaviour of normal rats (see FIG. 1).
as §1

[3] = normal rats #1 to #7, one value per rat, 2 hours at 5 minute intervals

In the case of “technetium-diethylenetriamine pentaacetic acid [^99m Tc(DTPA)]”, the “Elimination Halftime T1/2 From ^153 Gd and ^99m Tc” value [1] is reported as 31 min.
In the case of `CC(O)CN1CCN(CC(=O)[O-])CCN(CC(=O)[O-])CCN(CC(=O)[O-])CC1.[Gd+3]` (stereo not drawn) [^153 Gd-labeled ProHance®], the “Elimination Halftime T1/2 From ^153 Gd and ^99m Tc” value [1] is reported as 31 min.
In the case of `CC(O)CN1CCN(CC(=O)[O-])CCN(CC(=O)[O-])CCN(CC(=O)[O-])CC1.[Gd+3]` (stereo not drawn) [ProHance®, Gd-hydroxypropyl tetraazacylododecanetriacetic acid], the “Elimination Halftime T1/2 From Slope” value ([2]; nephrectomized rat) is reported as 2,000 ± 4,000 min, the “Slope of Log (1/T1 - 1/T10) vs Time Plot” value ([2]; nephrectomized rat) is reported as 0.0003 ± 0.0006 and the “Elimination Halftime T1/2 From Slope” value [2, 3] is reported as 35 ± 5 min and 32 ± 2 min and 25 ± 4 min and 30 ± 3 min and 36 ± 2 min and 20 ± 2 min. The “Slope of Log (1/T1 - 1/T10) vs Time Plot” value [2, 3] was 0.0093 ± 0.0006 and 0.012 ± 0.0020 and 0.010 ± 0.0012 and 0.0083 ± 0.0005 and 0.015 ± 0.0016 and 0.0087 ± 0.0012.
